Test results reported in patent US12629358B2, “Compound used as RET kinase inhibitor and application thereof” (TYK MEDICINES, INC., priority 2019, dated 2026).
Substitutions are numbered along the chain they refer to.

What was measured:
wild-type RET kinase = wild-type RET kinase (Homo sapiens, UniProt P07949); test: Enzyme activity test against wild-type RET kinase (33P-ATP filter-binding kinase activity assay); format: biochemical; conditions: ATP Km concentration, 10 concentrations
Method: A biological activity test experiment was conducted below for some compounds of the above Examples and Comparative Example.
[…]. The biological activity screening of the compounds will be determined repeatedly at 10 concentrations.
Each sample was prepared into a solution with a concentration of 10 mM.
The test compound was dissolved in 100% dimethyl sulfoxide to a specific concentration. Integra Viaflo Assist was used to assist DMSO for (continuous) dilution.
Kinase was added to the newly prepared basic reaction buffer
Adding any desired cofactors to the substrate solution.
Adding wild-type RET kinase into the substrate solution and gently mixing;
Acoustic technology (Echo 550; Nanoliter range) was used to feed the compounds in 100% of dimethyl sulfoxide into the kinase reaction mixture and incubated at room temperature for 20 minutes.
33P-ATP (specific activity 10 Ci/l) was added to the reaction mixture to start the reaction.
Incubated at room temperature for 2 hours
Radioactivity was detected by filter-binding method.
Kinase activity data was expressed as the percentage of remaining kinase activity in the test sample compared to the vehicle (dimethyl sulfoxide) reaction. Prism (GRAPHPAD software) was used to obtain IC50 value and curve-fitting.

[1] = Metabolism test of drugs: plasma pharmacokinetics after intravenous and intragastric administration; format: in vivo; conditions: male, rat, SD rats, PO, 10 mg/kg, plasma
Method: Four small molecule compounds of BLU-667, compound C2, compound C4 and compound C8 were administered to SD rats by intravenous and intragastric administration respectively. Blood samples were collected at different time points to determine the concentration of drugs in plasma after administration and calculate the related pharmacokinetics parameters.
The vehicle of BLU-667, C2, C4 and C8 was 10% NMP+49% PEG400+1% Tween80+40% Water. The specific preparation method was as follows: proper amount of tested samples was weighed, dissolved in 10% NMP+49% PEG400+1% Tween80+40% Water, mixed well by vortex for later use.
LC-MS/MS was used by the analysis department of the experimental organization to detect and analyze the prepared solution of sample for test.
Healthy male SD rats were used in this research. Animal weight: 150-200 g. All animals fasted before administration, and resumed feeding 4 hours after administration.
Time points for blood collection were: • Intravenous administration (groups 1, 3 and 5): 0.0833, 0.25, 0.5, 1, 2, 4, 8, 12 and 24 hours after administration. (±2 min at time point ≤2 hr, ±15 min at other points.) • Oral administration: (groups 2, 4, 6 and 7): 0.25, 0.5, 1, 2, 4, 8, 12 and 24 hours after administration. (±2 m at time point […] at other points.)
About 0.1 mL of blood was collected from each animal through jugular vein every time, and EDTA or heparin sodium was used as anticoagulant. Blood samples were collected and placed on ice, and plasma was separated by centrifugation (centrifugation conditions: 5000 r/min, 6 min, 4° C.).
LC-MS/MS was used by the analysis department of the experimental organization to analyze the plasma samples of rats.
According to the data of blood drug concentration of the drug, the pharmacokinetic parameters AUC0→t, AUC0→∞, MRT0→∞, CMax, TMax, Vss, F, CL and T1/2 as well as their mean and standard deviation of the samples for test were calculated respectively by pharmacokinetic calculation software WinNonlin non-compartment model.
The main pharmacokinetic parameters of BLU-667, compound C2, compound C4 and compound C8 in plasma after intravenous and single oral administration of BLU-667, compound C2, compound C4 and compound C8 in SD rats were shown in Table 3

[2] = target: T1, Ba/F3-KIF5B-RET-V804M cells (Homo sapiens, UniProt P07949, V804M); test: Cell anti-proliferation experiment (CellTiter-Glo), Ba/F3-KIF5B-RET-V804M; format: cell-based; conditions: cell viability, 72 h
T1 construct: host or cells: Ba/F3 (BaF3 from RIKEN BRC CELL BANK); the other entry of the earlier key: KIF5B (P33176, Kinesin-1 heavy chain)
T1 sequence (P07949 713-1063 V804M limits assumed): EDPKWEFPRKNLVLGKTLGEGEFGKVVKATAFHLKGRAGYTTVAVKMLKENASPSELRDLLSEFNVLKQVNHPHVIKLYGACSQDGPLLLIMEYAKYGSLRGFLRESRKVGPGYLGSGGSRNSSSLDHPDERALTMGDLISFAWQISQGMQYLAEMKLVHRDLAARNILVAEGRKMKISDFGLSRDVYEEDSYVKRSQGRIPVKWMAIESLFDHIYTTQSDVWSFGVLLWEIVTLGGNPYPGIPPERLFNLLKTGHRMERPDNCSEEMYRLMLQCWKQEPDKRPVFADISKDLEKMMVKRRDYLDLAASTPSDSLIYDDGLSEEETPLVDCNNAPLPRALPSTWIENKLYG
Method: (§1) Ba/F3-KIF5B-RET, Ba/F3-KIF5B-RET-V804L and Ba/F3-KIF5B-RET-V804M cells were constructed by PreceDo Pharmaceuticals Co., Ltd.
(§2) Ba/F3-KIF5B-RET, Ba/F3-KIF5B-RET-V804L and Ba/F3-KIF5B-RET-V804M medium: RPMI-1640+10% FBS+1% P/S.
(§3) A 1000× solution of the compound was prepared with DMSO, the compound was diluted to 20 times final concentration with a growth medium, and […] was added.
(§4) The suspended cells were rotated downward, resuscitated in the growth medium, and then counted with a cell counter. The cell suspension was diluted to the desired concentration in the growth medium. 95p L cell suspension was fed to a 96-well plate. 5 μL of 20× compound was added to the […], and the final DMSO concentration per well was 0.1%; incubated at 37° C. with 5% CO2 for 72 h
(§5) The plate was equilibrated to room temperature before measurement, 50 μl of CellTiter-Glo® reagent was added into each well, mixed on a shaker for 2 minutes, incubated at room temperature for 10 minutes, and recorded with Paradigm.
(§6) Cell viability was analyzed using Graphpad 7.0 software according to the formula Cell viability (CV %)=(RLU compound−RLU blank)/(RLU control−RLU blank)*100%, and the corresponding IC50 data were calculated as shown in Table 2

Ba/F3-KIF5B-RET cells = target: T2, Ba/F3-KIF5B-RET cells (Homo sapiens, UniProt P07949); test: Cell anti-proliferation experiment (CellTiter-Glo), Ba/F3-KIF5B-RET; format: cell-based; conditions: cell viability, 72 h
T2 construct: host or cells: Ba/F3 (BaF3 from RIKEN BRC CELL BANK); the other entry of the earlier key: KIF5B (P33176, Kinesin-1 heavy chain)
T2 sequence (P07949 713-1063 limits assumed): T1 sequence (P07949 713-1063 V804M limits assumed) with M92V
Method: as §1, §2, §3, §4, §5, §6

[3] = target: T3, Ba/F3-KIF5B-RET-V804L cells (Homo sapiens, UniProt P07949, V804L); test: Cell anti-proliferation experiment (CellTiter-Glo), Ba/F3-KIF5B-RET-V804L; format: cell-based; conditions: cell viability, 72 h
T3 construct: host or cells: Ba/F3 (BaF3 from RIKEN BRC CELL BANK); the other entry of the earlier key: KIF5B (P33176, Kinesin-1 heavy chain)
T3 sequence (P07949 713-1063 V804L limits assumed): T1 sequence (P07949 713-1063 V804M limits assumed) with M92L
Method: as §1, §2, §3, §4, §5, §6

Chain of wild-type RET kinase (P07949 29-1114): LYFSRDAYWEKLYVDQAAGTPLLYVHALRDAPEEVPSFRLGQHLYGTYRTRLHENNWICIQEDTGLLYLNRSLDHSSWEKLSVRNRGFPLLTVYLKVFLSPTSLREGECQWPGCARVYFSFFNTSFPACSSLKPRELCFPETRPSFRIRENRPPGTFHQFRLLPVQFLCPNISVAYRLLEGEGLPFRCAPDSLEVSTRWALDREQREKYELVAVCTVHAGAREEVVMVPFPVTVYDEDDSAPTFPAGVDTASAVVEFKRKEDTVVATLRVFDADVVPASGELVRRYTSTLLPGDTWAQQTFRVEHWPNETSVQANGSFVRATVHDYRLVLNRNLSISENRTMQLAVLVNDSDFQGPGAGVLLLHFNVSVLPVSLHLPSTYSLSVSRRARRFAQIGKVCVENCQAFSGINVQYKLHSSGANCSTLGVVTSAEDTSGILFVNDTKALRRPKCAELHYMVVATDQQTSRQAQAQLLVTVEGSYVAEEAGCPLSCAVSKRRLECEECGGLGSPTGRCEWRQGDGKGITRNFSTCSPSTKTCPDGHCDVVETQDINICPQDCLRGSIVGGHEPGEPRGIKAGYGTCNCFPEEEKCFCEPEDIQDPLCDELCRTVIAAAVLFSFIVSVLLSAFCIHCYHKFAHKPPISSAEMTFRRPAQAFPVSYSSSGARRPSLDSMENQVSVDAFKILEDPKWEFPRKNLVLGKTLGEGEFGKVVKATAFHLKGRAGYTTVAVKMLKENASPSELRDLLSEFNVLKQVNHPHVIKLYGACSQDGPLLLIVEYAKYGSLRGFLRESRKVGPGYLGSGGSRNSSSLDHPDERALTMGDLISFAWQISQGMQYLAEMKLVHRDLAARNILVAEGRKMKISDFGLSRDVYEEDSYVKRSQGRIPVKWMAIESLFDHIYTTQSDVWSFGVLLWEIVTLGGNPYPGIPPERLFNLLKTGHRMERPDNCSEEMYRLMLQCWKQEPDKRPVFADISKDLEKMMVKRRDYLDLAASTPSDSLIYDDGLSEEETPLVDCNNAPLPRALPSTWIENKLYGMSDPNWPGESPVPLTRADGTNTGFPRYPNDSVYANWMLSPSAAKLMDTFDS

COC1(C(=O)N[C@@H](C)c2ccc(-n3cc(F)cn3)nc2)CC=C(c2ccc(C#N)c(Nc3cc(C)[nH]n3)n2)CC1 (stereo partly shown) [Comparative Example C32, reference compound]
Wild-RET IC50 (wild-type RET kinase): no activity

CO[C@]1(C(=O)N[C@@H](C)c2ccc(-n3cc(F)cn3)nc2)CC[C@@H](c2nc(Nc3cc(C)[nH]n3)ccc2C#N)CC1 [Compound C1]
IC50 (wild-type RET kinase): 146 nM

CO[C@]1(C(=O)N[C@@H](C)c2ccc(-n3cc(F)cn3)nc2)CC[C@@H](c2nc(Nc3cc(C)[nH]n3)cc3cccnc32)CC1 [Compound C3]
IC50 (wild-type RET kinase): 241 nM

CO[C@]1(C(=O)N[C@@H](C)c2ccc(-n3cc(F)cn3)nc2)CC[C@@H](c2nc(Nc3cc(C)[nH]n3)cc3c2N(C)CCC3)CC1 [Compound C5]
IC50 (wild-type RET kinase): 100 nM

CO[C@]1(C(=O)N[C@@H](C)c2ccc(-n3cc(F)cn3)nc2)CC[C@H](c2nc(Nc3cc(C)[nH]n3)cc3c2N(C)CCC3)CC1 [Compound C6]
IC50 (wild-type RET kinase): 3.53 nM

COC1(C(=O)N[C@@H](C)c2ccc(-n3cc(F)cn3)nc2)CC=C(c2nc(Nc3cc(C)[nH]n3)ccc2C#N)CC1 (stereo partly shown) [Compound C7]
IC50 (wild-type RET kinase): 5.34 nM

COC1(C(=O)N[C@@H](C)c2ccc(-n3cc(F)cn3)nc2)CC=C(c2nc(Nc3cc(C)[nH]n3)cc3cccnc23)CC1 (stereo partly shown) [Compound C8]
AUC(0-inf) [1]: 2830 ng·h/mL | AUC(0-t) [1]: 2800 ng·h/mL | Cmax [1]: 824 ng/mL | Tmax [1]: 2 h | half-life [1]: 117 min | MRT ([1]; read-out: MRTINF_ obs): 2.85 h | IC50 (wild-type RET kinase): 1.53 nM

CO[C@]1(C(=O)N[C@@H](C)c2ccc(-n3cc(F)cn3)nc2)CC[C@H](c2nc(Nc3cc(C)[nH]n3)c(F)cc2C#N)CC1 [Compound C9]
IC50 (wild-type RET kinase): 3.38 nM

CO[C@]1(C(=O)N[C@@H](C)c2ccc(-n3cc(F)cn3)nc2)CC[C@@H](c2nc(Nc3cc(C)[nH]n3)c(F)cc2C#N)CC1 [Compound C10]
IC50 (wild-type RET kinase): 262 nM

COC1(C(=O)N[C@@H](C)c2ccc(-n3cc(F)cn3)nc2)CC=C(c2nc(Nc3cc(C)[nH]n3)c(F)cc2C#N)CC1 (stereo partly shown) [Compound C11]
IC50 (wild-type RET kinase): 17.4 nM

COC1(C(=O)N[C@@H](C)c2ccc(-n3cc(F)cn3)nc2)CC=C(c2nc(Nc3cc(C)[nH]n3)cnc2C#N)CC1 (stereo partly shown) [Compound C12]
IC50 (wild-type RET kinase): 16.1 nM

CO[C@]1(C(=O)N[C@@H](C)c2ccc(-n3cc(F)cn3)nc2)CC[C@H](c2nc(Nc3cc(C)[nH]n3)cnc2C#N)CC1 [Compound C13]
IC50 (wild-type RET kinase): 2.08 nM

CO[C@]1(C(=O)N[C@@H](C)c2ccc(-n3cc(F)cn3)nc2)CC[C@H](c2nc(Nc3cc(C)[nH]n3)cc3nccnc32)CC1 [Compound C14]
IC50 [2]: 109 nM | IC50 (Ba/F3-KIF5B-RET cells): 54.1 nM | IC50 [3]: 46.8 nM

CO[C@]1(C(=O)N[C@@H](C)c2ccc(-n3cc(F)cn3)nc2)CC[C@H](c2nc(Nc3cc(C)[nH]n3)c3ccccc3n2)CC1 [Compound C15]
IC50 [2]: 7.4 nM | IC50 (Ba/F3-KIF5B-RET cells): 4.6 nM | IC50 [3]: 2.8 nM

CO[C@]1(C(=O)N[C@@H](C)c2ccc(-n3cc(F)cn3)nc2)CC[C@@H](c2nc(Nc3cc(C)[nH]n3)cc(C)c2C#N)CC1 [Compound C16]
IC50 (wild-type RET kinase): 180 nM

CO[C@]1(C(=O)N[C@@H](C)c2ccc(-n3cc(F)cn3)nc2)CC[C@H](c2nc(Nc3cc(C)[nH]n3)cc(C)c2C#N)CC1 [Compound C17]
IC50 (wild-type RET kinase): 1.26 nM

CO[C@]1(C(=O)N[C@@H](C)c2ccc(-n3cc(F)cn3)nc2)CC[C@H](c2nc(Nc3cc(C)[nH]n3)cc3c2C(=O)NCC3)CC1 [Compound C18]
IC50 (wild-type RET kinase): 1.52 nM

CO[C@]1(C(=O)N[C@@H](C)c2ccc(-n3cc(F)cn3)nc2)CC[C@@H](c2nc(Nc3cc(C)[nH]n3)cc3c2C(=O)NCC3)CC1 [Compound C19]
IC50 (wild-type RET kinase): 64.7 nM

CO[C@]1(C(=O)N[C@@H](C)c2ccc(-n3cnc(Cl)n3)nc2)CC[C@H](c2nc(Nc3cc(C)[nH]n3)cc3cccnc32)CC1 [Compound C24]
IC50 [2]: 182 nM | IC50 (Ba/F3-KIF5B-RET cells): 95.1 nM | IC50 [3]: 84 nM

CO[C@]1(C(=O)N[C@@H](C)c2cnc(-n3cc(F)cn3)cn2)CC[C@H](c2nc(Nc3cc(C)[nH]n3)cc3cccnc32)CC1 [Compound C26]
IC50 [2]: 7.9 nM | IC50 (Ba/F3-KIF5B-RET cells): 5.2 nM | IC50 [3]: 2.9 nM

CO[C@]1(C(=O)N[C@@H](C)c2ccc(-n3cc(F)cn3)nn2)CC[C@H](c2nc(Nc3cc(C)[nH]n3)cc3cccnc32)CC1 [Compound C27]
IC50 [2]: 51.9 nM | IC50 (Ba/F3-KIF5B-RET cells): 29.4 nM | IC50 [3]: 23 nM

CO[C@]1(C(=O)N[C@@H](C)c2ccc(-n3cnc(C)n3)nc2)CC[C@H](c2nc(Nc3cc(C)[nH]n3)cc3cccnc32)CC1 [Compound C29]
IC50 [2]: 252 nM | IC50 (Ba/F3-KIF5B-RET cells): 146 nM | IC50 [3]: 118 nM
